Source: patent US9155695B2, “Injectable ropinirole compositions and methods for making and using same” (Medtronic, Inc., priority 2013, dated 2015)
Structures can show the parent of a compound that is named as a salt.

Columns and labels:
[1] = Pharmacokinetics of injectable ropinirole administered subcutaneously, steady state plasma levels; format: in vivo; settings: rats, subcutaneous, sterilized ropinirole HCl in sterile water for injection, no excipients
[2] = as above; format: in vivo; settings: minipigs, subcutaneous, ropinirole 15 mg/ml terminally sterilized (Table A)
site of infusion [3] = assay: Toxicology, subcutaneous infusion site reaction; format: in vivo, rabbits and minipigs
Method: Toxicology was tested on rats, rabbits and minipigs. A sterilized injectable ropinirole composition at 15 mg/mL/day was administered to the rabbits and minipigs. Injection sites were administered 1 mL of infusate per day for 3 days and tissues collected immediately after cessation of delivery. […] A slight trend towards larger reactions with higher concentrations/doses of ropinirole relative to vehicle-treated sites was found but was concluded to be much less severe than apomorphine-induced inflammation at clinically relevant doses (FIGS. 12 and 13).

site of infusion [4] = settings: in vivo
site of infusion [5] = assay: Histopathology score of site reactions in the subcutis at the cannula tip; settings: apomorphine, microscopic

SMILES | steady state plasma levels versus dose [1] | steady state plasma levels versus dose [2] | inflammation/necrosis at the site of infusion (site of infusion [3]; 15 mg/mL/day, 1 mL per day for 3 days) | gross detectability of reactions at the local sites of infusion (site of infusion [3]; seen only at cannula tip in the subcutis upon microscopic evaluation) | two and three repeat administrations to the same site versus single 3-day administration (site of infusion [4]) | size of site reaction relative to 15 mg/mL/day ropinirole (site of infusion [3]; minipig, 10 mg/3 mL/day, 3 days infusion) | inflammation score (site of infusion [5]) | necrosis score (site of infusion [5])
CCCN(CCC)CCc1cccc2c1CC(=O)N2 [ropinirole, 4-[2-(dipropylamino)ethyl]-1,3-dihydro-2H-indol2-one monohydrochloride] | approximate linear relationship to the dose administered | approximate linear relationship to the dose administered | mild inflammation/necrosis | not detectable grossly at the surface of the skin | did not differ significantly |  |  | 
CN1CCc2cccc3c2[C@H]1Cc1ccc(O)c(O)c1-3 [apomorphine] |  |  |  |  |  | approximately twice as large | severe | moderate
